US20250257064A1, “TRIFLUOROMETHYL-SUBSTITUTED SULFONAMIDE AS BCL-2-SELECTIVE INHIBITOR” (Chia Tai Tianqing Pharmaceutical Group Co., Ltd., priority 2018, published 2025)

How the values were obtained:
BCL-XL/BAK = biological target: T1, BCL-XL/BAK (Homo sapiens, UniProt Q07817); assay: Screening on inhibitory activity for BCL-XL/BAK binding (Cisbio HTRF kit)
T1 construct: purchased Cisbio
Summary of the method: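 Tag1-BCL-XL and Tag2-BAK (2 nM and 80 nM before mixing) were combined with compounds at final 2000–0.488 nM (4-fold, 7 points, duplicates) for 15 min at 25° C. Eu3+ anti-Tag1 and XL665 anti-Tag2 were then added for ≥2 h at 25° C. HTRF (620/665 nm) gave IC50 by four-parameter fit.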

[1] = In vitro stability in rat liver microsomes; assay type: in vitro ADME; conditions: 1 μM
Method: Experimental Example 3: In Vitro Stability in Liver Microsome
300 μL of the final incubation system contains 30 μL of liver microsomes (protein concentration: 5 mg/mL), 30 μL of NADPH+MgCl2, 3 μL of the test compound (in acetonitrile), and 237 μL of PBS buffer (pH 7.4), wherein the proportion of the organic solvent (acetonitrile) is 1% (volume ratio). Two duplicate samples were prepared for each specie (mouse, rat and human), and each sample was 0.3 mL. Each tube which was added with 270 μL of a mixed solution of substrate and enzyme, and NADPH, after being pre-incubated at 37° C. for 5 min, was added with 30 μL of NADPH+MgCl2 and mixed. Then 50 μL of the mixture was taken at 0 min, 15 min, 30 min and 60 min, and added with 300 μL of glacial acetonitrile containing an internal standard to terminate the reaction.
50 μL of the incubated sample was added with 300 μL of glacial acetonitrile containing an internal standard (20 ng/mL diazepam) for precipitation, vortexed for 5 min, and centrifuged (13,000 rpm, 20° C.) for 10 min. 70 μL of supernatant was taken and diluted with 70 μL of ultrapure water. After being mixed well, 1 μL of the resulting sample was injected for analysis.

[2] = tested on: human platelet Caspase-3 activity; assay: Human platelet toxicity experiment (Caspase-3 activity assay); assay type: cell-based; conditions: compound concentration 1 μM, 90 min; data normalized, reference ABT-199
Method: Experimental Example 6: Human Platelet Toxicity Experiment (Caspase-3 Activity Assay)
10 mL of human whole blood was collected using a heparin sodium anticoagulation tube, mixed well by turning upside down, and centrifuged at 90 g for 10 min. The supernatant was collected and centrifuged at 1950 g for 10 min. The supernatant was discarded, and the residue was resuspended in 4 mL of PBS, and centrifuged at 1190 g for 5 min, and the procedure was repeated once. The supernatant was discarded, and the platelets were resuspended in PBS and adjusted to the density of 2-3×10^8 cells/mL. Cells were seeded into a 96-well plate at a density of 2-3×10^7 cells/mL and at 100 μL/well. 50 μL of control buffer was added to each negative control well, and 50 μL of compound at a corresponding concentration was added to each compound well, so that the final concentration of the compound was 2.5 μM, 2 μM, 1 μM or 0.5 μM, followed by incubation in an incubator at 37° C. for 90 min. The liquids in the 96-well plate were transferred to 1.5 mL centrifuge tubes, respectively. The tubes were centrifuged at 4° C. and 6000 g for 5 min, and placed on ice for later use after the supernatant was discarded. 5× lysis buffer was diluted into 1× lysis buffer with water in the kit, and protease inhibitor cocktail was added at a 1:200 ratio to prepare a lysis mixture for later use. 40 μL of lysis mixture was added to each centrifuge tube, and the platelets at the bottom were resuspended using a pipette. The suspension was lysed on ice for 15-20 min and centrifuged at 4° C. and 14,000 g for 10 min. The sample was sub-packaged for later use. 10× assay buffer was diluted into 1× assay buffer with water in the kit, and substrate Ac-DEVD-AMC was added at a 1:600 ratio to prepare a reaction mixture. 5 μL of assay buffer and 40 μL of reaction mixture were added to each blank control well. 5 μL of control platelet lysate and 40 μL of reaction mixture were added to each negative control well. 5 μL of platelet lysate and 40 μL of reaction mixture were added to each compound well. In this procedure, 40 μL of reaction mixture was added at last. The resulting mixture was mixed gently, and the plate was read by a PE Envision multi-functional microplate reader (excitation: 360 nm, emission: 460 nm) once every 10 min for 6 times. Caspase-3 activity was determined based on the intensity of the released AMC fluorescence, that is the slope of the fitted line to which each well corresponds represents Caspase activity (all data were normalized and the reference was ABT-199).

RS4;11 cells = assay: Inhibitory effect on proliferation of RS4;11 cells (CCK-8); assay type: cell-based, human; conditions: Homo sapiens, RS4-11, 72 h
Summary of the method: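 RS4;11 cells were seeded at 1×10^5 cells/mL in RPMI with 5% FBS and incubated 24 h at 37° C, 5% CO2 before compound addition in duplicate. Inhibition was calculated against untreated and blank controls. IC50 came from a four-parameter fit of log concentration versus inhibition.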

T1 sequence (Q07817 whole entry, species assumed): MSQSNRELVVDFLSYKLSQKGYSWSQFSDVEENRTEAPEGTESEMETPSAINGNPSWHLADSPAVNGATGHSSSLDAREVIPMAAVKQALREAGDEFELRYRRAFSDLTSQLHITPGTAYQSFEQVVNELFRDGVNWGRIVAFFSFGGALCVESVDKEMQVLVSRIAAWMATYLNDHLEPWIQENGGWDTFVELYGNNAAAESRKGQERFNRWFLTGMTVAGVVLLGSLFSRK

| IC50 (RS4;11 cells) | Structure (SMILES) | IC50 (BCL-XL/BAK) | Rat Residual content after 60 min (%) [1] | human platelet Caspase-3 activity, Slope [2] |
| --- | --- | --- | --- | --- |
| – | CC1(C)CCC(CN2CCN(c3ccc(C(=O)NS(=O)(=O)c4ccc(NC[C@H]5COCCO5)c([N+](=O)[O-])c4)c(Oc4cnc5[nH]ccc5c4)c3)CC2)=C(c2ccc(C(F)(F)F)cc2Cl)C1 [Compound 8-1] | 155 nM | 90.9% | 0.59 |
| 2.3 nM | CC1(C)CCC(CN2CCN(c3ccc(C(=O)NS(=O)(=O)c4ccc(NCC5CCOCC5)c([N+](=O)[O-])c4)c(Oc4cnc5[nH]ccc5c4)c3)CC2)=C(c2ccc(C(F)(F)F)cc2Cl)C1 [Compound 1-1, 4-(4-{[2-(2-chloro-4-trifluoromethylphenyl)-4,4-dimethylcyclohex-1-enyl]methyl}-piperazin-1-yl)-N-({3-nitro-4-[(tetrahydro-2H-pyran-4-ylmethyl)amino]phenyl}sulfonyl)-2-(1H-pyrrolo[2,3-b]pyridin-5-yloxy)-benzamide] | 133 nM | 88.4% | 0.67 |
